# Reference: patent US9770407B2 (Lundbeck Pharmaceuticals LLC, priority 2005, dated 2017)
# “And” between values parts separate entries of the source, which are not always exact repeats. Equal entries are not always repeated.
# How the values were obtained:
# [1] = Phase solubility of CBZ in aqueous Captisol and aqueous Cavitron; format: physicochemical; conditions: for Measured CBZ conc: ambient laboratory temperature
# Description: The percent weight/volume cyclodextrin solutions were prepared by adding the appropriate amount of cyclodextrin to a flask and filling to the desired total volume (10 mL) with water, as shown in the following Table 4. An excess of carbamazepine was added to each eppendorf tube. Appropriate vehicles were added to each tube and the final volumes were 1 mL. The solubility of CBZ was determined at ambient laboratory temperatures in various concentrations of aqueous Captisol and aqueous Cavitron (brand names of modified cyclodextrins useful in the present invention). The drug substance was added to a microcentrifuge tube and the appropriate vehicle was added. Periodically, the samples were centrifuged and then an aliquot was removed from the supernatant, diluted as necessary and assayed by HPLC to determine the concentration. The phase solubility was evaluated at least three times during each experiment to insure that the mixture achieved equilibrium. […] The solubilities reported in Table 5 are the average of two or three concentration determinations obtained during the respective time course.
# [2] = immediate release and extended release tablets; previously estimated; cited from earlier work
smiles,measurement,setting,value
"NC(=O)N1c2ccccc2C=Cc2ccccc21 [Carbamazepine, 5H-dibenz[b,f]azepine-5-carboxamide]",Measured CBZ conc,"[1]; Captisol 0% w/v, CBZ source Orgamol",0.2 mg/mL
same,Measured CBZ conc,"[1]; Captisol 0% w/v, CBZ source Spectrum",0.2 mg/mL
same,"Measured CBZ conc, Ave","[1]; Captisol 0% w/v, average of the three determinations",0.2 mg/mL
same,Measured CBZ conc,"[1]; Captisol 5% w/v, CBZ source Orgamol, listed as CBZ",2.2 mg/mL and 2.4 mg/mL
same,Measured CBZ conc,"[1]; Captisol 5% w/v, CBZ source Spectrum",2.4 mg/mL
same,"Measured CBZ conc, Ave","[1]; Captisol 5% w/v, average of the three determinations",2.3 mg/mL
same,Measured CBZ conc,"[1]; Captisol 10% w/v, CBZ source Orgamol, listed as CBZ",4.1 mg/mL and 4.6 mg/mL
same,Measured CBZ conc,"[1]; Captisol 10% w/v, CBZ source Spectrum",6.2 mg/mL
same,"Measured CBZ conc, Ave","[1]; Captisol 10% w/v, average of the three determinations",5.0 mg/mL
same,Measured CBZ conc,"[1]; Captisol 15% w/v, CBZ source Orgamol, listed as CBZ",6.4 mg/mL and 7.7 mg/mL
same,Measured CBZ conc,"[1]; Captisol 15% w/v, CBZ source Spectrum",6.9 mg/mL
same,"Measured CBZ conc, Ave","[1]; Captisol 15% w/v, average of the three determinations",7.0 mg/mL
same,Measured CBZ conc,"[1]; Captisol 20% w/v, CBZ source Orgamol, listed as CBZ",9.2 mg/mL and 10.3 mg/mL
same,Measured CBZ conc,"[1]; Captisol 20% w/v, CBZ source Spectrum",9.4 mg/mL
same,"Measured CBZ conc, Ave","[1]; Captisol 20% w/v, average of the three determinations",9.6 mg/mL
same,Measured CBZ conc,"[1]; Captisol 25% w/v, CBZ source Orgamol, listed as CBZ",11.4 mg/mL and 12.3 mg/mL
same,Measured CBZ conc,"[1]; Captisol 25% w/v, CBZ source Spectrum",11.8 mg/mL
same,"Measured CBZ conc, Ave","[1]; Captisol 25% w/v, average of the three determinations",11.8 mg/mL
same,Measured CBZ conc,"[1]; Captisol 30% w/v, CBZ source Orgamol, listed as CBZ",13.5 mg/mL and 15.2 mg/mL
same,Measured CBZ conc,"[1]; Captisol 30% w/v, CBZ source Spectrum",14.6 mg/mL
same,"Measured CBZ conc, Ave","[1]; Captisol 30% w/v, average of the three determinations",14.4 mg/mL
same,Measured CBZ conc,"[1]; Captisol 35% w/v, CBZ source Orgamol, listed as CBZ",15.9 mg/mL and 18.4 mg/mL
same,Measured CBZ conc,"[1]; Captisol 35% w/v, CBZ source Spectrum",16.3 mg/mL
same,"Measured CBZ conc, Ave","[1]; Captisol 35% w/v, average of the three determinations",16.9 mg/mL
same,Measured CBZ conc,"[1]; Captisol 40% w/v, CBZ source Orgamol, listed as CBZ",18.3 mg/mL and 20.8 mg/mL
same,Measured CBZ conc,"[1]; Captisol 40% w/v, CBZ source Spectrum",19.3 mg/mL
same,"Measured CBZ conc, Ave","[1]; Captisol 40% w/v, average of the three determinations",19.5 mg/mL
same,Measured CBZ conc,"[1]; Captisol 45% w/v, CBZ source Orgamol, listed as CBZ",20.6 mg/mL and 22.5 mg/mL
same,Measured CBZ conc,"[1]; Captisol 45% w/v, CBZ source Spectrum",21.8 mg/mL
same,"Measured CBZ conc, Ave","[1]; Captisol 45% w/v, average of the three determinations",21.6 mg/mL
same,Measured CBZ conc,"[1]; Captisol 50% w/v, CBZ source Orgamol, listed as CBZ",22.5 mg/mL and 24.8 mg/mL
same,Measured CBZ conc,"[1]; Captisol 50% w/v, CBZ source Spectrum",26.6 mg/mL
same,"Measured CBZ conc, Ave","[1]; Captisol 50% w/v, average of the three determinations",24.6 mg/mL
same,Measured CBZ conc,"[1]; Cavitron 0% w/v, CBZ source Orgamol",0.2 mg/mL
same,Measured CBZ conc,"[1]; Cavitron 0% w/v, CBZ source Spectrum",0.3 mg/mL
same,Measured CBZ conc,"[1]; Cavitron 5% w/v, CBZ source Orgamol, listed as CBZ",2.7 mg/mL and 3.0 mg/mL
same,Measured CBZ conc,"[1]; Cavitron 5% w/v, CBZ source Spectrum",3.8 mg/mL
same,"Measured CBZ conc, Ave","[1]; Cavitron 5% w/v, average of the three determinations",3.2 mg/mL
same,Measured CBZ conc,"[1]; Cavitron 10% w/v, CBZ source Orgamol, listed as CBZ",5.4 mg/mL and 5.6 mg/mL
same,Measured CBZ conc,"[1]; Cavitron 10% w/v, CBZ source Spectrum",4.1 mg/mL
same,"Measured CBZ conc, Ave","[1]; Cavitron 10% w/v, average of the three determinations",5.0 mg/mL
same,Measured CBZ conc,"[1]; Cavitron 15% w/v, CBZ source Orgamol, listed as CBZ",8.2 mg/mL and 8.4 mg/mL
same,Measured CBZ conc,"[1]; Cavitron 15% w/v, CBZ source Spectrum",12.3 mg/mL
same,"Measured CBZ conc, Ave","[1]; Cavitron 15% w/v, average of the three determinations",9.6 mg/mL
same,Measured CBZ conc,"[1]; Cavitron 20% w/v, CBZ source Orgamol, listed as CBZ",10.9 mg/mL and 11.1 mg/mL
same,Measured CBZ conc,"[1]; Cavitron 20% w/v, CBZ source Spectrum",16.4 mg/mL
same,"Measured CBZ conc, Ave","[1]; Cavitron 20% w/v, average of the three determinations",12.8 mg/mL
same,Measured CBZ conc,"[1]; Cavitron 25% w/v, CBZ source Orgamol, listed as CBZ",14.0 mg/mL and 14.3 mg/mL
same,Measured CBZ conc,"[1]; Cavitron 25% w/v, CBZ source Spectrum",14.8 mg/mL
same,"Measured CBZ conc, Ave","[1]; Cavitron 25% w/v, average of the three determinations",14.4 mg/mL
same,Measured CBZ conc,"[1]; Cavitron 30% w/v, CBZ source Orgamol, listed as CBZ",15.9 mg/mL and 16.2 mg/mL
same,Measured CBZ conc,"[1]; Cavitron 30% w/v, CBZ source Spectrum",17.9 mg/mL
same,"Measured CBZ conc, Ave","[1]; Cavitron 30% w/v, average of the three determinations",16.7 mg/mL
same,Measured CBZ conc,"[1]; Cavitron 35% w/v, CBZ source Orgamol, listed as CBZ",18.1 mg/mL and 19.9 mg/mL
same,Measured CBZ conc,"[1]; Cavitron 35% w/v, CBZ source Spectrum",20.7 mg/mL
same,"Measured CBZ conc, Ave","[1]; Cavitron 35% w/v, average of the three determinations",19.6 mg/mL
same,Measured CBZ conc,"[1]; Cavitron 40% w/v, CBZ source Orgamol, listed as CBZ",22.5 mg/mL and 22.0 mg/mL
same,Measured CBZ conc,"[1]; Cavitron 40% w/v, CBZ source Spectrum",23.2 mg/mL
same,"Measured CBZ conc, Ave","[1]; Cavitron 40% w/v, average of the three determinations",22.6 mg/mL
same,Measured CBZ conc,"[1]; Cavitron 45% w/v, CBZ source Orgamol, listed as CBZ",25.5 mg/mL and 25.7 mg/mL
same,Measured CBZ conc,"[1]; Cavitron 45% w/v, CBZ source Spectrum",27.3 mg/mL
same,"Measured CBZ conc, Ave","[1]; Cavitron 45% w/v, average of the three determinations",26.2 mg/mL
same,Measured CBZ conc,"[1]; Cavitron 50% w/v, CBZ source Orgamol, listed as CBZ",27.8 mg/mL and 28.0 mg/mL
same,Measured CBZ conc,"[1]; Cavitron 50% w/v, CBZ source Spectrum",31.5 mg/mL
same,"Measured CBZ conc, Ave","[1]; Cavitron 50% w/v, average of the three determinations",29.1 mg/mL
same,solubility thermodynamic,"[1]; aqueous Cavitron, water, thermodynamic from solid, Cavitron 0% w/v, average of the three determinations, read-out: Measured CBZ conc, Ave",200 µg/mL
same,CBZ solubility in Cavitron as compared to Captisol,"[1]; at most cyclodextrin concentrations, FIG. 1A",marginally improved in Cavitron
same,absolute bioavailability,[2],75-85
